The subject of experiment [1] is A3 cells. Put plainly: Annexin V-staining (apoptosis). The class given is cell-based, human. As to conditions: 72 h. The procedure: The annexin V staining experiment was performed using BD Pharmingen FITC Annexin V Apoptosis Detection Kit I (cat.no 556547) according to the protocol given in the kit. Cells were washed with ice-cold PBS and then washed with 1X Annexin buffer diluted in ice-cold PBS. To the washed pellet of cells, PI and FITC Annexin V dye was added and incubated at room temperature in dark for 15 mins. After the incubation, 400 µl of annexin buffer was added and run in Navios flow cytometer (Beckman Coulter) to detect the apoptosis with blue laser(488 nm, filter 525/40 nm) and dead cells with blue laser(488 nm, filter 620/30 nm). Kaluza Flow Analysis (Beckman Coulter) was used for data analysis.
Figure 4. Anticancer properties overlap between OGG1 loss and OGG1 inhibitors. (A) Viability of T-cell acute […] leukemia cell lines treated for 5 days with the indicated doses TH5487. Data are average ±SD of independent experiments (A3, n = 5; Jurkat, n = 3; MOLT-4, n = 4; CCRF-CEM, n = 3). (B) Relative cell numbers and (C) viability (%) for A3 cells treated for 5 days with 10 μM TH5487. Data are average ±SD of six replicates from three independent experiments. […] Statistical significance was determined using unpaired, two-sided t-tests (*P < 0.05, **P < 0.01, ***P < 0.001, ****P < 0.0001, ns, non-significant).

Experiment [2] deals with A3 cells. Nature of the experiment: Cell cycle distribution by flow cytometry. It counts as cell-based, human. To be noted: 10 μM. The procedure: At the indicated time points, compound/dox treated cells were incubated in medium containing 10 μM 5-ethynyl-2′-deoxyuridine (EdU) (Thermo Fisher, A10044) for 20 min. Next, cells were fixed in cold 70% ethanol overnight. The azide alkyne Huisgen cycloaddition (‘Click reaction’) was carried out according to the Click-iT EdU Imaging Manual (Thermo Fisher) using various fluorescent dyes: Alexa Fluor® 488 azide (Thermo Fisher, A10266), Alexa Fluor® 647 azide (Thermo Fisher, A10277), or TAMRA azide (Thermo Fisher, T10182), depending on assay conditions. […] Data was analyzed using Kaluza® Flow Analysis Software (Beckman Coulter). […]
untreated parental HEK293T. […] Statistical significance was determined using Mann Witney test (**, P<0.01, ***, P<0.001 and ****, P<0.0001 , ns, non-significant).
Supplementary Fig. S6: 8 -oxodG levels and cell cycle distribution. […] The indicated shNT cells were treated with 250 ng/ml doxycycline for 0, 96, or 144 h, and the amount of genomic 8-oxodG was quantified with LC -MS/MS. […] Cells were treated with 10 µM TH5487 or an equivalent volume DMSO for the indicated times, and the cell cycle distribution was determined by flow cytometry. […] A3 shNT (grey), sh2 (blue), and sh3 (red), were treated with 250 ng/ml doxycycline for 48 –120 h, and the cell cycle distribution was determined with flow cytometry. […]
For orientation: A flow cytometer gives signals particle by particle.

The structures appear in SMILES notation.

On to `O=C(Nc1ccc(I)cc1)N1CCC(n2c(=O)[nH]c3c(Br)cccc32)CC1` [TH5487], for which the “Apoptosis (Annexin V-propidium iodide)” value in the experiment with A3 cells [1] (20 μM) is given as “more substantial”; with A3 cells [1] (5 and 10 μM), “slight but significant increase in apoptosis”. Further, the Cell cycle distribution result with A3 cells [2] was “remained largely constant”. In addition, in the experiment on A3 cells [2], the Sub-G1 population result is reported as “accumulation in the sub-G1 population”.

Source of the values: PMC7708037, “Targeting OGG1 arrests cancer cell proliferation by inducing replication stress” (Nucleic Acids Research, 2020).
